Measurements published in PMC6225165, “Design and Synthesis of Novel Dehydroepiandrosterone Analogues as Potent Antiproliferative Agents” (Molecules : A Journal of Synthetic Chemistry and Natural …, 2018).
pIC50: −log10 of the molar value.

Assays:
A549 = test: MTT antiproliferative assay, A549; format: cell-based, human; conditions: 48 h, MTT; for inhibition at 100 µM: read-out: % Growth Inhibition at 100 μM A549
Method: (§1) The antiproliferative activity of the title compounds against the panel of six different human cancer cell lines, viz. lung (A549), cervix (HeLa), liver (HepG-2), liver (BEL7402), colorectal (HCT116), and breast (MCF-7) cell lines, was evaluated using a standard MTT-based colorimetric assay. All cell lines were obtained from the Key Laboratory of Natural Resources and Functional Molecules of the Changbai Mountain (Yanbian University) and maintained in Dulbecco’s modified Eagle’s medium (DMEM) and RPMI Media 1640 (RPMI1640), supplemented with 10% foetal bovine serum (FBS) at 37 °C in a humidified atmosphere containing 5% CO2.
(§2) Cells were plated in 96-well plates at appropriate densities to ensure exponential growth throughout the experimental period (9 × 10^3 cells per well), and then allowed to adhere for 24 h. Cells were then treated for 48 h with each compound. After 48 h of incubation, 10 μL of MTT solution were added to each well to a final concentration of 2 mg·mL^−1. Plates were then incubated for a further 4 h. After incubation, the MTT solution was removed and 150 μL of DMSO were added to each well for coloration. The plates were shaken vigorously for 10 min at room temperature to ensure complete solubilisation. The optometric density (OD) was read on a microplate reader (EL × 800, BioTek, Highland Park, Winooski, VT, USA) at 492 nm, and the data were subsequently analysed. The percentage of cell growth inhibition was calculated from the following equation:Inhibitory rate (%) = [1 − (ODtreated − ODblank)/(ODcontrol − ODblank)] × 100.
(§3) To obtain the antiproliferative activity of compounds 2a–2w, the compounds were selected in the same way with four serial concentrations (1, 10, 50 and 100 μM) of those compounds. The optometric density (OD) reading was then used to calculate the IC50.

Hela = test: MTT antiproliferative assay, Hela; format: cell-based, human; conditions: 48 h, MTT; for inhibition at 100 µM: read-out: % Growth Inhibition at 100 μM Hela
Method: as §1, §2, §3

HepG-2 = test: MTT antiproliferative assay, HepG-2; format: cell-based, human; conditions: 48 h, MTT; for inhibition at 100 µM: read-out: % Growth Inhibition at 100 μM HepG-2
Method: as §1, §2, §3

BEL7402 = test: MTT antiproliferative assay, BEL7402; format: cell-based, human; conditions: 48 h, MTT; for inhibition at 100 µM: read-out: % Growth Inhibition at 100 μM BEL7402
Method: as §1, §2, §3

HCT116 = test: MTT antiproliferative assay, HCT116; format: cell-based, human; conditions: 48 h, MTT; for inhibition at 100 µM: read-out: % Growth Inhibition at 100 μM HCT116
Method: as §1, §2, §3

MCF-7 = test: MTT antiproliferative assay, MCF-7; format: cell-based, human; conditions: 48 h, MTT; for inhibition at 100 µM: read-out: % Growth Inhibition at 100 μM MCF-7
Method: as §1, §2, §3

[1] = test system: human normal liver (L02) cells; test: MTT assay on normal cell line L02; format: cell-based; conditions: 48 h, MTT; for inhibition at 100 µM / % Growth Inhibition at 100 μM L02: normal cells; for inhibition at 100 µM: read-out: % Growth Inhibition at 100 μM L02; for pIC50: normal cell line

Row | Structure (SMILES) | inhibition at 100 µM (A549; Homo sapiens, A549) [%] | inhibition at 100 µM (Hela; Homo sapiens) [%] | inhibition at 100 µM (HepG-2; Homo sapiens, HepG2) [%] | inhibition at 100 µM (BEL7402; Homo sapiens, Bel-7402) [%] | inhibition at 100 µM (HCT116; Homo sapiens, HCT-116) [%] | inhibition at 100 µM (MCF-7; Homo sapiens, MCF7) [%] | inhibition at 100 µM ([1]; Homo sapiens, L02) [%] | pIC50 (HepG-2; Homo sapiens, HepG2) | pIC50 (BEL7402; Homo sapiens, Bel-7402) | pIC50 (HCT116; Homo sapiens, HCT-116) | pIC50 (MCF-7; Homo sapiens, MCF7) | % Growth Inhibition at 100 μM A549 (A549) | % Growth Inhibition at 100 μM Hela (Hela) [%] | % Growth Inhibition at 100 μM HepG-2 (HepG-2) | % Growth Inhibition at 100 μM BEL7402 (BEL7402) | % Growth Inhibition at 100 μM HCT116 (HCT116) [%] | % Growth Inhibition at 100 μM MCF-7 (MCF-7) | % Growth Inhibition at 100 μM L02 [1] | other results
1 | CC12CCC3C(CC=C4CC(O)CCC43C)C1C/C(=C\c1cn(-c3cccc(Cl)c3)nn1)C2=O (stereo not shown) [Compound 2f, (E)-16-((1-(3-chlorophenyl)-1H-1,2,3-triazol-4-yl)methylene)-3-hydroxy-10,13-dimethyl-1,3,4,7,8,9,10,11,12,13,15,16-dodecahydro-2H-cyclopenta[a]phenanthren-17(14H)-one] | 11.9 | 9.2 | 51.7 | 36.5 | 41.9 | 41 | 60.2 | – | – | – | – | – | – | – | – | – | – | – | –
2 | CC12CCC3C(CC=C4CC(O)CCC43C)C1C/C(=C\c1cn(-c3ccc(Cl)cc3)nn1)C2=O (stereo not shown) [Compound 2g, (E)-16-((1-(4-chlorophenyl)-1H-1,2,3-triazol-4-yl)methylene)-3-hydroxy-10,13-dimethyl-1,3,4,7,8,9,10,11,12,13,15,16-dodecahydro-2H-cyclopenta[a]phenanthren-17(14H)-one] | 69.8 | 62.8 | 32.5 | 66.9 | 78.7 | 39.9 | 40.9 | < 4.00 | 4.23 | 4.63 | < 4.00 | – | – | – | – | – | – | – | pIC50 (A549; Homo sapiens, A549): 4.43; pIC50 (Hela; Homo sapiens, HeLa): 4.24; pIC50 ([1]; Homo sapiens, L02): < 4.00
3 | CC12CCC3C(CC=C4CC(O)CCC43C)C1C/C(=C\c1cn(-c3ccc(Cl)c(Cl)c3)nn1)C2=O (stereo not shown) [Compound 2h, (E)-16-((1-(3,4-dichlorophenyl)-1H-1,2,3-triazol-4-yl)methylene)-3-hydroxy-10,13-dimethyl-1,3,4,7,8,9,10,11,12,13,15,16-dodecahydro-2H-cyclopenta[a]phenan-thren-17(14H)-one] | – | – | – | – | – | – | – | – | – | – | – | 70.7% | 68.7 | 48.2% | 70.1% | 74.4 | 80.0% | 67.9% | pIC50 (A549): 4.76; pIC50 (Hela): 4.82; pIC50 (HepG-2): < 4.00; pIC50 (BEL7402): 4.80; pIC50 (HCT116): 4.93; pIC50 (MCF-7): 4.83; pIC50 [1]: 4.58
4 | CC12CCC3C(CC=C4CC(O)CCC43C)C1C/C(=C\c1cn(-c3ccccc3Br)nn1)C2=O (stereo not shown) [Compound 2i, (E)-16-((1-(2-bromophenyl)-1H-1,2,3-triazol-4-yl)methylene)-3-hydroxy-10,13-dimethyl-1,3,4,7,8,9,10,11,12,13,15,16-dodecahydro-2H-cyclopenta[a]phenan-thren-17(14H)-one] | – | – | – | – | – | – | – | – | – | – | – | NA (NA: antiproliferative activity <5%) | 17.0 | NA (NA: antiproliferative activity <5%) | NA (NA: antiproliferative activity <5%) | 20.2 | NA (NA: antiproliferative activity <5%) | NA (NA: antiproliferative activity <5%) | –
5 | O=c1[nH]cc(F)c(=O)[nH]1 [Compound 5-FU, 5-fluorouracil, reference compound] | – | – | – | – | – | – | – | 4.98 | 4.67 | 4.61 | 4.55 | – | – | – | – | – | – | – | –
